Read-outs that look alike come from different tables or passages of the source.
System: iCell cardiomyocytes (human iPSC-derived cardiomyocytes)
Test: Intracellular Ca2+ flux / beating parameters in iCell cardiomyocytes (FLIPR tetra), 90 min or 24 h
Type: cell-based
Conditions: Homo sapiens, Cardiomyocyte, 0.00 µM = 100.00; for activity at 0.1 µM: 0.10 µM
How it was run: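 Gelatin-plated iCell cardiomyocytes (5,000/well) were dye-loaded for 2 h at 37 °C, then exposed for 90 min or 24 h to PCBs/metabolites (5× plates at 0.05–500 µM; 0.5% DMSO final) in triplicate. Ca2+ flux was read for 100 s at 8 Hz and 37 °C. Peak height, frequency, spacing CV and decay/rise ratio were vehicle-normalized and fitted with a four-parameter logistic model, with POD set at 1 SD of vehicle.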

[1] = 1.5 h, read-out: cm.amp.avg.90min
[2] = 1.5 h, read-out: cm.amp.cv.90min
[3] = 1.5 h, read-out: cm.decay.rise.90min
[4] = 1.5 h, read-out: cm.spacing.cv.90min
[5] = 24 h, read-out: cm.amp.avg.24hrs
[6] = 24 h, read-out: cm.amp.cv.24hrs
[7] = 24 h, read-out: cm.decay.rise.24hrs
[8] = 24 h, read-out: cm.spacing.cv.24hrs

Question: `Clc1ccc(-c2ccccc2)cc1` [PCB3] was tested. Which activity at 0.01 µM [1] did it give?
Answer: The activity at 0.01 µM was 98.5%.

Question: What about the activity at 0.01 µM [2] of the same molecule?
Answer: Its activity at 0.01 µM is 109%.

Question: What about the activity at 0.01 µM (1.5 h, read-out: cm.bpm.90min) of the same molecule?
Answer: Its activity at 0.01 µM is 95.3%.

Question: And the activity at 0.01 µM [3]?
Answer: Its activity at 0.01 µM is 98.9%.

Question: And the activity at 0.01 µM [4]?
Answer: Its activity at 0.01 µM is 124%.

Question: What about the activity at 0.1 µM [1] of the same molecule?
Answer: The activity at 0.1 µM was 104%.

Question: What about the activity at 0.1 µM [2] of the same molecule?
Answer: Its activity at 0.1 µM is 102%.

Question: And the activity at 0.1 µM (1.5 h, read-out: cm.bpm.90min)?
Answer: The activity at 0.1 µM was 96.5%.

Question: And the activity at 0.1 µM [3]?
Answer: Its activity at 0.1 µM is 99.5%.

Question: What about the activity at 0.1 µM [4] of the same molecule?
Answer: Its activity at 0.1 µM is 116%.

Question: And the activity at 1 µM [1]?
Answer: Its activity at 1 µM is 99.9%.

Question: What about the activity at 1 µM [2] of the same molecule?
Answer: Its activity at 1 µM is 123%.

Question: And the activity at 1 µM (1.5 h, read-out: cm.bpm.90min)?
Answer: The activity at 1 µM was 96.5%.

Question: And the activity at 1 µM [3]?
Answer: The activity at 1 µM was 96.1%.

Question: And the activity at 1 µM [4]?
Answer: The activity at 1 µM was 130%.

Question: What about the activity at 10 µM [1] of the same molecule?
Answer: Its activity at 10 µM is 99.5%.

Question: What about the activity at 10 µM [2] of the same molecule?
Answer: Its activity at 10 µM is 115%.

Question: What about the activity at 10 µM (1.5 h, read-out: cm.bpm.90min) of the same molecule?
Answer: The activity at 10 µM was 103%.

Question: And the activity at 10 µM [3]?
Answer: The activity at 10 µM was 98.8%.

Question: What about the activity at 10 µM [4] of the same molecule?
Answer: Its activity at 10 µM is 121%.

Question: What about the activity at 100 µM [1] of the same molecule?
Answer: The activity at 100 µM was 81.2%.

Question: What about the activity at 100 µM [2] of the same molecule?
Answer: Its activity at 100 µM is 180%.

Question: And the activity at 100 µM (1.5 h, read-out: cm.bpm.90min)?
Answer: The activity at 100 µM was 193%.

Question: And the activity at 100 µM [3]?
Answer: Its activity at 100 µM is 99.9%.

Question: And the activity at 100 µM [4]?
Answer: Its activity at 100 µM is 133%.

Question: What about the activity at 0.01 µM [5] of the same molecule?
Answer: Its activity at 0.01 µM is 91.3%.

Question: And the activity at 0.01 µM [6]?
Answer: The activity at 0.01 µM was 119%.

Question: What about the activity at 0.01 µM (24 h, read-out: cm.bpm.24hrs) of the same molecule?
Answer: Its activity at 0.01 µM is 103%.

Question: What about the activity at 0.01 µM [7] of the same molecule?
Answer: Its activity at 0.01 µM is 98.3%.

Question: What about the activity at 0.01 µM [8] of the same molecule?
Answer: Its activity at 0.01 µM is 138%.

Question: And the activity at 0.1 µM [5]?
Answer: Its activity at 0.1 µM is 87.1%.

Question: What about the activity at 0.1 µM [6] of the same molecule?
Answer: Its activity at 0.1 µM is 41.5%.

Question: And the activity at 0.1 µM (24 h, read-out: cm.bpm.24hrs)?
Answer: Its activity at 0.1 µM is 52.5%.

Question: And the activity at 0.1 µM [7]?
Answer: The activity at 0.1 µM was 47.1%.

Question: What about the activity at 0.1 µM [8] of the same molecule?
Answer: Its activity at 0.1 µM is 61.2%.

Question: What about the activity at 1 µM [5] of the same molecule?
Answer: Its activity at 1 µM is 87.1%.

Question: And the activity at 1 µM [6]?
Answer: Its activity at 1 µM is 146%.

Question: What about the activity at 1 µM (24 h, read-out: cm.bpm.24hrs) of the same molecule?
Answer: The activity at 1 µM was 103%.

Question: And the activity at 1 µM [7]?
Answer: Its activity at 1 µM is 104%.

Question: And the activity at 1 µM [8]?
Answer: Its activity at 1 µM is 118%.

Question: And the activity at 10 µM [5]?
Answer: The activity at 10 µM was 110%.

Question: And the activity at 10 µM [6]?
Answer: The activity at 10 µM was 106%.

Question: And the activity at 10 µM (24 h, read-out: cm.bpm.24hrs)?
Answer: Its activity at 10 µM is 110%.

Question: What about the activity at 10 µM [7] of the same molecule?
Answer: Its activity at 10 µM is 98.5%.

Question: What about the activity at 10 µM [8] of the same molecule?
Answer: The activity at 10 µM was 128%.

Question: What about the activity at 100 µM [5] of the same molecule?
Answer: Its activity at 100 µM is 0%.

Question: What about the activity at 100 µM [6] of the same molecule?
Answer: Its activity at 100 µM is 0%.

Question: What about the activity at 100 µM (24 h, read-out: cm.bpm.24hrs) of the same molecule?
Answer: Its activity at 100 µM is 0%.

Question: What about the activity at 100 µM [7] of the same molecule?
Answer: Its activity at 100 µM is 0%.

Question: What about the activity at 100 µM [8] of the same molecule?
Answer: Its activity at 100 µM is 0%.

Question: For `Clc1cccc(-c2cccc(Cl)c2)c1` [PCB11], which activity at 0.01 µM [1] is on record?
Answer: The activity at 0.01 µM was 99.2%.

Question: And the activity at 0.01 µM [2]?
Answer: Its activity at 0.01 µM is 103%.

Question: What about the activity at 0.01 µM (1.5 h, read-out: cm.bpm.90min) of the same molecule?
Answer: Its activity at 0.01 µM is 103%.

Question: What about the activity at 0.01 µM [3] of the same molecule?
Answer: Its activity at 0.01 µM is 101%.

Question: And the activity at 0.01 µM [4]?
Answer: The activity at 0.01 µM was 93.4%.

Question: And the activity at 0.1 µM [1]?
Answer: The activity at 0.1 µM was 102%.

Question: And the activity at 0.1 µM [2]?
Answer: The activity at 0.1 µM was 91.4%.

Question: And the activity at 0.1 µM (1.5 h, read-out: cm.bpm.90min)?
Answer: The activity at 0.1 µM was 103%.

Question: What about the activity at 0.1 µM [3] of the same molecule?
Answer: Its activity at 0.1 µM is 98.2%.

Question: What about the activity at 0.1 µM [4] of the same molecule?
Answer: The activity at 0.1 µM was 89.8%.

Question: And the activity at 1 µM [1]?
Answer: Its activity at 1 µM is 105%.

Question: And the activity at 1 µM [2]?
Answer: The activity at 1 µM was 97.9%.

Question: And the activity at 1 µM (1.5 h, read-out: cm.bpm.90min)?
Answer: Its activity at 1 µM is 95.3%.

Question: What about the activity at 1 µM [3] of the same molecule?
Answer: The activity at 1 µM was 99.6%.

Question: And the activity at 1 µM [4]?
Answer: The activity at 1 µM was 107%.

Question: What about the activity at 10 µM [1] of the same molecule?
Answer: Its activity at 10 µM is 94.8%.

Question: What about the activity at 10 µM [2] of the same molecule?
Answer: The activity at 10 µM was 99.8%.

Question: What about the activity at 10 µM (1.5 h, read-out: cm.bpm.90min) of the same molecule?
Answer: The activity at 10 µM was 114%.

Question: And the activity at 10 µM [3]?
Answer: The activity at 10 µM was 91.8%.

Question: And the activity at 10 µM [4]?
Answer: The activity at 10 µM was 101%.

Question: And the activity at 100 µM [1]?
Answer: Its activity at 100 µM is 22.3%.

Question: And the activity at 100 µM [2]?
Answer: Its activity at 100 µM is 139%.

Question: What about the activity at 100 µM (1.5 h, read-out: cm.bpm.90min) of the same molecule?
Answer: Its activity at 100 µM is 0%.

Question: And the activity at 100 µM [3]?
Answer: Its activity at 100 µM is 54.6%.

Question: And the activity at 100 µM [4]?
Answer: The activity at 100 µM was 66.2%.

Question: What about the activity at 0.01 µM [5] of the same molecule?
Answer: Its activity at 0.01 µM is 137%.

Question: And the activity at 0.01 µM [6]?
Answer: Its activity at 0.01 µM is 77.1%.

Question: And the activity at 0.01 µM (24 h, read-out: cm.bpm.24hrs)?
Answer: The activity at 0.01 µM was 108%.

Question: What about the activity at 0.01 µM [7] of the same molecule?
Answer: The activity at 0.01 µM was 93.4%.

Question: And the activity at 0.01 µM [8]?
Answer: Its activity at 0.01 µM is 127%.

Question: What about the activity at 0.1 µM [5] of the same molecule?
Answer: The activity at 0.1 µM was 134%.

Question: And the activity at 0.1 µM [6]?
Answer: The activity at 0.1 µM was 69.8%.

Question: And the activity at 0.1 µM (24 h, read-out: cm.bpm.24hrs)?
Answer: Its activity at 0.1 µM is 105%.

Question: What about the activity at 0.1 µM [7] of the same molecule?
Answer: The activity at 0.1 µM was 98.1%.

Question: What about the activity at 0.1 µM [8] of the same molecule?
Answer: The activity at 0.1 µM was 98.2%.

Question: And the activity at 1 µM [5]?
Answer: Its activity at 1 µM is 130%.

Question: And the activity at 1 µM [6]?
Answer: Its activity at 1 µM is 77.5%.

Question: What about the activity at 1 µM (24 h, read-out: cm.bpm.24hrs) of the same molecule?
Answer: The activity at 1 µM was 93.6%.

Question: What about the activity at 1 µM [7] of the same molecule?
Answer: Its activity at 1 µM is 108%.

Question: What about the activity at 1 µM [8] of the same molecule?
Answer: Its activity at 1 µM is 92.8%.

Question: And the activity at 10 µM [5]?
Answer: The activity at 10 µM was 110%.

Question: And the activity at 10 µM [6]?
Answer: Its activity at 10 µM is 90.8%.

Question: And the activity at 10 µM (24 h, read-out: cm.bpm.24hrs)?
Answer: Its activity at 10 µM is 106%.

Question: What about the activity at 10 µM [7] of the same molecule?
Answer: The activity at 10 µM was 111%.

Question: What about the activity at 10 µM [8] of the same molecule?
Answer: The activity at 10 µM was 98.2%.

Question: What about the activity at 100 µM [5] of the same molecule?
Answer: Its activity at 100 µM is 0%.

Question: And the activity at 100 µM [6]?
Answer: The activity at 100 µM was 0%.

Question: And the activity at 100 µM (24 h, read-out: cm.bpm.24hrs)?
Answer: Its activity at 100 µM is 0%.

Question: What about the activity at 100 µM [7] of the same molecule?
Answer: Its activity at 100 µM is 0%.

Question: And the activity at 100 µM [8]?
Answer: The activity at 100 µM was 0%.
